The values below are quoted from earlier work in patent US20050226908A1, “Efficacious composition of a benzimidazole, an avermectin and praziquantel and related methods of use” (Akzo Nobel N.V., priority 2004, published 2005).

This data set has as its system parasites. The following applies: fenbendazole alone, one time treatment at 100 or 150 mg/kg; JAVMA 180, 1:53 (1982) and Am J Vet Res 39, 11:1799 (1978).

As to `COC(=O)Nc1nc2ccc(Sc3ccccc3)cc2[nH]1` [fenbendazole], the “Efficacy of one time treatment” value was “not efficacious”.
